Measurements: US20250375468A1, “NOVEL RAS INHIBITORS” (KHR Biotec GmbH, priority 2022, published 2025)

Experiments:
Test in all cases: NanoBit assay for RAS activation (RAS-LgBiT / CRAF RBD-SmBiT)
Assay type in all cases: cell-based
[1] = target: T1, HRAS G12V (Homo sapiens, UniProt P01112, G12V); settings: HRAS G12V with CRAF RBD, 2 h incubation with inhibitor, serum free DMEM
T1 construct: K, N and HRAS G12V (full length) was cloned with Xho I and Bgl Il to LgBit; expressed in transfected cells
Protocol: (§1) FIGS. 1a) and 1b): NanoBit assay for RAS activation (KRAS G12V, NRAS G12V, HRAS G12V)
(§2) N-terminal LgBiT and C-terminal SmBIT construct was purchased from Promega and K, N and HRAS G12V (full length) was cloned with Xho I and Bgl Il to LgBit and CRAF Ras binding domain (1-149) was cloned with EcoRI and Bgl Il to SmBit. For transfections, 1 μg or 2 μg of (12 well/6 well) plasmids were transfected into cells with 0.5 mM of PEI reagent in 100 μl or 200 μl PBS. One day after transfection, cells were harvested and seeded into 96 well white plates, half area (Greiner). After an additional day the medium was changed to serum free DMEM and the cells were incubated for 2 h with inhibitors. NanoGlo assay was performed according to the manufacturer's instructions. The luminescence was measured using Tecan infinite (Tecan).

[2] = target: T2, KRAS G12V (Homo sapiens, UniProt P01116, G12V); settings: KRAS G12V with CRAF RBD, 2 h incubation with inhibitor, serum free DMEM
T2 construct: K, N and HRAS G12V (full length) was cloned with Xho I and Bgl Il to LgBit; expressed in transfected cells
Protocol: as §1, §2

[3] = target: T3, NRAS G12V (Homo sapiens, UniProt P01111, G12V); settings: NRAS G12V with CRAF RBD, 2 h incubation with inhibitor, serum free DMEM
T3 construct: K, N and HRAS G12V (full length) was cloned with Xho I and Bgl Il to LgBit; expressed in transfected cells
T3 sequence (P01111 whole entry G12V): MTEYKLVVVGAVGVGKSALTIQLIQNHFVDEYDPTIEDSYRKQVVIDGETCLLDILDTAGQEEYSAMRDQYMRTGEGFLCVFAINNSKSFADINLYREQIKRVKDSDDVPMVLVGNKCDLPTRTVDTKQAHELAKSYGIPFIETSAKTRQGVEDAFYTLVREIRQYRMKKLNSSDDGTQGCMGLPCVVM
Protocol: as §1, §2

CC[PH](CC)(CC)[Au][S][C@@H]1O[C@H](COC(C)=O)[C@@H](OC(C)=O)[C@H](OC(C)=O)[C@H]1OC(C)=O [Auranofin, (2,3,4,6-Tetra-O-acetyl-1-thio-β-D-glucopyranosato)(triethylphosphan)gold]
inhibits: RAS activation (NanoBit luminescence), H-RAS [1] | RAS activation (NanoBit luminescence), K-RAS [2] | RAS activation (NanoBit luminescence), N-RAS [3]
